Data: paper PMC6154719 (Molecules : A Journal of Synthetic Chemistry and Natural …, 2017)
Blank lines part the entries; values can stand above or below the molecule they belong to.

Columns and labels:
[1] = test system: certain CYPs; set-up: method as in PMID 21287405; conditions: read-out: IC50, inhibition of certain CYPs; cited from earlier work
[2] = target: T1, CYP1A2 (Homo sapiens, UniProt P05177); experiment: CYP1A2 (EROD activity, 7-ethoxyresorufin O-deethylation) in human liver microsomes; assay type: in vitro ADME; conditions: liver microsomes, probe 7-ethoxyresorufin; human, 5 µM inhibitor
T1 construct: Frozen liver (both rat and human) was thawed; from tissue; host or cells: human liver microsomal fraction
T1 sequence (P05177 1-516): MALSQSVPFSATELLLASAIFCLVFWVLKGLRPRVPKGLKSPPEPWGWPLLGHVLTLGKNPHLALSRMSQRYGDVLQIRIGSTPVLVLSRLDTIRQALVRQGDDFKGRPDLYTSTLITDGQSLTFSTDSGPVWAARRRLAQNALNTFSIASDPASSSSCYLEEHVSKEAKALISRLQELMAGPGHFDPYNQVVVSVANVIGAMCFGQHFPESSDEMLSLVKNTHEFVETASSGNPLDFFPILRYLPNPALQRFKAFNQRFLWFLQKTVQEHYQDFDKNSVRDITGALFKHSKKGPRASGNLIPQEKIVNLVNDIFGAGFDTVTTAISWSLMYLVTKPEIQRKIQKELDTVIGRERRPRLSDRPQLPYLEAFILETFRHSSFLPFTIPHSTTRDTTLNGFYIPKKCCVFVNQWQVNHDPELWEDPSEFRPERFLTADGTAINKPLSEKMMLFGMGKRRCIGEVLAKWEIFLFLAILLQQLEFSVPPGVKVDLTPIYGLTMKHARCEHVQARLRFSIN
Method: (§1) Enzyme activities were assayed in human and rat liver cytosolic and microsomal fractions. The enzyme assays (each performed in 4–8 replicates) were repeated three times (HPLC measurement of CYP activities was repeated only twice, Table 3). Inhibition studies were carried out by incubation of specific substrates in the presence of sesquiterpenes (in the range 0–100 µM).
(§2) Enzyme activities of individual CYP forms were measured according to established protocols. The following microsomal CYP activities were tested: CYP2A6, coumarin 7-hydroxylation; CYP2B6, 7-ethoxy-4-(trifluoromethyl)coumarin 7-deethylation, CYP2C9, diclofenac 4′-hydroxylation, CYP2C19 assay, S-mephenytoin 4′-hydroxylation, CYP2D6 on bufuralol 1′-hydroxylation, CYP2E1, chlorzoxazone 6-hydroxylation and CYP3A4, testosterone 6β-hydroxylation, and midazolam 1′-hydroxylation. Activities were measured using the Prominence HPLC system (Shimadzu, Kyoto, Japan), equipped with a LiChroCART 250-4 LiChrospher 100 RP-18 column or Chromolith®HighResolution RP-18 end-capped column (Merck, Darmstadt, Germany) and UV or fluorescence detection, according to the cited literature. Further incubation details are described either in the corresponding references, as well as in the papers from this laboratory e.g., [42, 43, 44]. CYP1A2, 7-ethoxyresorufin O-deethylation, and CYP3A4/2B6 (human), CYP2B1 (rat), benzyloxyresorufin O-debenzylation were measured using the microplate reader Tecan Infinite M200 (Tecan Group; Mannedorf, Switzerland).
Sesquiterpenes CNER, TNER and FAR, non-volatile liquids, were pipetted, and proper concentration was calculated according to density. All compounds were dissolved in DMSO. […] All experiments were performed in three replicates, if not stated otherwise.
(§3) CNER, TNER and FAR at a fixed concentration of 100 µM were screened for inhibition of cytosolic AKR1A1, AKR1C, CBR1, NQO1, SULT, and GST, and microsomal CYPs and UGT. The degree of inhibition caused by sesquiterpenes was compared with non-inhibited control reactions, which contained solvent without sesquiterpenes.
The concentration of sesquiterpenes required for 50% inhibition of enzyme activity, the IC50 value, was determined. […] The IC50 values for each sesquiterpene were determined by plotting sigmoidal dose response curves of specific enzyme activity vs. logarithm of sesquiterpene concentration using GraphPad Prism version 6.07 for Windows (GraphPad Software Inc., La Jolla, CA, USA).
(§4) The kinetic inactivation study of the CYP1A2 (EROD activity) and CYP2B/3A (BROD activity), both in rat and human, with TNER, was performed to find out the mechanism of enzyme inhibition by this sesquiterpene. Mechanism of EROD and BROD inhibition was tested at the final ethoxyresorufin or benzyloxyresorufin concentrations 0.5–5.0 µM. The concentration of TNER was 5.0 µM.
(§5) Experimental data were fitted to the Michaelis-Menten equation, basic kinetic parameters were determined using the program GraphPad Prism version 6.07 for Windows. The type of inhibition was estimated using a Lineweaver-Burk (double-reciprocal) plot.

[3] = test system: CYP2B/3A; experiment: CYP2B/3A (BROD activity, benzyloxyresorufin O-debenzylation) in human liver microsomes; assay type: in vitro ADME; conditions: probe benzyloxyresorufin
Method: as §1, §2
Sesquiterpenes CNER, TNER and FAR, non-volatile liquids, were pipetted, and proper concentration was calculated according to density. All compounds were dissolved in DMSO. The final solvent concentration in the inhibition assays was 1%, which had no effect on the enzyme activity (data not shown). Non-enzymatic interference of sesquiterpenes with some compounds in the reaction mixtures (e.g., fluorescence enhancing or quenching) was considered and excluded. All experiments were performed in three replicates, if not stated otherwise.
as §3
The concentration of sesquiterpenes required for 50% inhibition of enzyme activity, the IC50 value, was determined. Their final concentrations in the reaction mixture were proposed to cover the entire inhibitory range of these compounds (1–100 µM). The IC50 values for each sesquiterpene were determined by plotting sigmoidal dose response curves of specific enzyme activity vs. logarithm of sesquiterpene concentration using GraphPad Prism version 6.07 for Windows (GraphPad Software Inc., La Jolla, CA, USA).
as §4, §5

[4] = test system: HeLa; set-up: method as in earlier work; conditions: HeLa cell line; cited from earlier work
[5] = test system: Jurkat; set-up: method as in earlier work; conditions: Jurkat cell line; cited from earlier work
[6] = test system: CYP3A4; set-up: method as in PMID 25858508; conditions: human liver microsomes; cited from earlier work

SMILES: CC1=CCC[C@]2(C)O[C@H]2CC(=C(C)C)C(=O)C1 [(4S,5S)-(+)-germacrone-4,5-epoxide]
IC50 [1]: 1000 nM

inhibition at 5 µM [2]: 92%
SMILES: O=c1cc(-c2ccccc2)oc2c1ccc1ccccc12 [ANF, α-naphthoflavone, reference compound]

inhibition at 5 µM ([3]; liver microsomes, human, 5 µM inhibitor): 66% | IC50 ([3]; human liver microsomes): 2680 nM
SMILES: CC(=O)N1CCN(c2ccc(OCC3COC(Cn4ccnc4)(c4ccc(Cl)cc4Cl)O3)cc2)CC1 (stereo not shown) [KET, ketoconazole, reference compound]

SMILES: C=CC(C)(O)CC/C=C(\C)CCC=C(C)C (stereo not shown) [NER, Nerolidol]
concentration with strong anti-tumor effects [4]: less than 5 µM | concentration with strong anti-tumor effects [5]: less than 5 µM

SMILES: C=C1C(=O)O[C@@H]2C[C@@]3(C)CCC[C@H](C)C3=C[C@H]12 [alantolactone]
IC50 [6]: 3600 nM
